Drawing on patent publication US12583849B2, “KCNT1 inhibitors and methods of use” (Praxis Precision Medicines, Inc., priority 2020, dated 2026), this text covers IC50 for 23 compounds.

This experiment deals with T1, KCNT1 (KNa1.1, Slack) (Homo sapiens, UniProt Q5JUK3).
T1 construct: expressed in transfected cells; host or cells: HEK-TREX (tetracycline-inducible cell line)
T1 sequence (Q5JUK3 1-1230): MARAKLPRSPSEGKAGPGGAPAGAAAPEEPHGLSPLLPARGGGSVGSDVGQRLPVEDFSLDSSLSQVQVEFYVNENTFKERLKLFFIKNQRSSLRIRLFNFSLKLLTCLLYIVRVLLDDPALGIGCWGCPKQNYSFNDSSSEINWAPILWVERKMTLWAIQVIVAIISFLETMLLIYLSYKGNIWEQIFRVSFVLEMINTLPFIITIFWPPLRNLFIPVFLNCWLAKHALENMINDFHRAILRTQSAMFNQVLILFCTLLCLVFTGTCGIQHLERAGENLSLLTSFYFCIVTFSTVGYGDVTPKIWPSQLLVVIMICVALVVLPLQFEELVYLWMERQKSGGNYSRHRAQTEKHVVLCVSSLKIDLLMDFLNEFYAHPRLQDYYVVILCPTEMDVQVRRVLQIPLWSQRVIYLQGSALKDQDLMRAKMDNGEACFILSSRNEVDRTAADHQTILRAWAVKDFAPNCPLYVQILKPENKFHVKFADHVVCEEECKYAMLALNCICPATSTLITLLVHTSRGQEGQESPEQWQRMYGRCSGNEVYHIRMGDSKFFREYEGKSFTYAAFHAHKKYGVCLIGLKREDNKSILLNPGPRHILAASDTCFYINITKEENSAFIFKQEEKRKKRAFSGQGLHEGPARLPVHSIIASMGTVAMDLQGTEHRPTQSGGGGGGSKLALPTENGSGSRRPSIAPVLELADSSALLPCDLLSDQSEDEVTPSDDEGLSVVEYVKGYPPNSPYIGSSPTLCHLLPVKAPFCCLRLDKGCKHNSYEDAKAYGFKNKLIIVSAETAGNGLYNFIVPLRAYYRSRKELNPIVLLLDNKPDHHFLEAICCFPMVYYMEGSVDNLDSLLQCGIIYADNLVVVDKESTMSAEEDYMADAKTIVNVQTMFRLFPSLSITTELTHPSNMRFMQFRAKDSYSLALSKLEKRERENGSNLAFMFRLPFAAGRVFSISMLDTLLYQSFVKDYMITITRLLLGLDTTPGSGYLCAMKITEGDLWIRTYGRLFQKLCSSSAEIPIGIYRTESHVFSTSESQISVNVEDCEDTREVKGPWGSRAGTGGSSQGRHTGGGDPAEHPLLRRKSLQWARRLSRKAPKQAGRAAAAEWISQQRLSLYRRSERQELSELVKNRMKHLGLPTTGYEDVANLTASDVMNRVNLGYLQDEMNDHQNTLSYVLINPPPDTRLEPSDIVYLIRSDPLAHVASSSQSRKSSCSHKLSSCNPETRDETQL
In words: KCNT1-WT-Basal Patch Clamp Assay. It counts as cell-based. The following applies: tetracycline inducible cell line (HEK-TREX); SyncroPatch 384PE automated patch clamp, perforated patch mode, room temperature, step from -80 mV to 0 mV. On the procedure: KCNT1-WT-Basal—Patch Clamp Assay
Inhibition of KCNT1 (KNa1.1, Slack) was evaluated using a tetracycline inducible cell line (HEK-TREX). Currents were recorded using the SyncroPatch 384PE automated, patch clamp system. Pulse generation and data collection were performed with PatchController384 V1.3.0 and DataController384 V1.2.1 (Nanion Technologies). The access resistance and apparent membrane capacitance were estimated using built-in protocols. Current were recorded in perforated patch mode (10 μM escin) from a population of cells. The cells were lifted, triturated, and resuspended at 800,000 cells/ml. The cells were allowed to recover in the cell hotel prior to experimentation. Currents were recorded at room temperature. The external solution contained the following (in mM): NaCl 105, NMDG 40, KCl 4, MgCl2 1, CaCl2 5 and HEPES 10 (pH=7.4, Osmolarity ˜300 mOsm). The extracellular solution was used as the wash, reference and compound delivery solution. The internal solution contained the following (in mM): NaCl 70, KF 70, KCl 10, EGTA 5, HEPES 5 and Escin 0.01 (pH=7.2, Osmolarity ˜295 mOsm). Escin is made at a 5 mM stock in water, aliquoted, and stored at −20° C. The compound plate was created at 2× concentrated in the extracellular solution. The compound was diluted to 1:2 when added to the recording well. The amount of DMSO in the extracellular solution was held constant at the level used for the highest tested concentration. A holding potential of −80 mV with a 100 ms step to 0 mV was used. Mean current was measured during the step to 0 mV. […] The average mean current from 3 sweeps was calculated and the % inhibition of each compound was calculated. The % Inhibition as a function of the compound concentration was fit with a Hill equation to derive IC50, slope, min and max parameters. If KCNT1 inhibition was less than 50% at the highest tested concentration or if an IC50 could not be calculated, then a percent inhibition was reported in place of the IC50.
In this table, “A” indicates IC50 of less than or equal to 1 μM; “B” indicates inhibition of between 1 μM to 20 μM; and “C” indicates inhibition of greater than or equal to 20 μM.

In the case of `CC1CCC(C(=O)N[C@@H](C)c2nc(-c3ccnc(C(F)(F)F)c3)no2)CC1` (stereo partly drawn) [Compound I-19, (S)-4-methyl-N-(1-(3-(2-(trifluoromethyl)pyridin-4-yl)-1,2,4-oxadiazol-5-yl)ethyl)cyclohexane-1-carboxamide], the IC50 is at most 1000 nM.

The compound `CC[C@H](NC(=O)C1CCCCC1)c1nc(-c2ccnc(C(F)(F)F)c2)no1` [Compound I-20, (S)—N-(1-(3-(2-(trifluoromethyl)pyridin-4-yl)-1,2,4-oxadiazol-5-yl)propyl)cyclohexanecarboxamide] registered an IC50 of at most 1000 nM.

As to `Cc1oncc1C(=O)N[C@@H](C)c1nc(-c2ccnc(C(F)(F)F)c2)no1` [Compound I-21, (S)-5-methyl-N-(1-(3-(2-(trifluoromethyl)pyridin-4-yl)-1,2,4-oxadiazol-5-yl)ethyl)isoxazole-4-carboxamide], the concentration for half-maximal inhibition (IC50) was 1000 to 20000 nM.

As to `C[C@H](NC(=O)c1ccns1)c1nc(-c2ccnc(C(F)(F)F)c2)no1` [Compound I-22, (S)—N-(1-(3-(2-(trifluoromethyl)pyridin-4-yl)-1,2,4-oxadiazol-5-yl)ethyl)isothiazole-5-carboxamide], the IC50 lay within 1000 to 20000 nM.

As for `C[C@H](NC(=O)c1ccno1)c1nc(-c2ccnc(C(F)(F)F)c2)no1` [Compound I-23, (S)—N-(1-(3-(2-(trifluoromethyl)pyridin-4-yl)-1,2,4-oxadiazol-5-yl)ethyl)isoxazole-5-carboxamide], the concentration for half-maximal inhibition (IC50) was at least 20000 nM.

On to `C[C@H](NC(=O)c1cccnn1)c1nc(-c2ccnc(C(F)(F)F)c2)no1` [Compound I-24, (S)—N-(1-(3-(2-(trifluoromethyl)pyridin-4-yl)-1,2,4-oxadiazol-5-yl)ethyl)pyridazine-3-carboxamide], for which the IC50 was at least 20000 nM.

`C[C@H](NC(=O)c1cc2ccc(C(F)(F)F)cc2s1)c1nc(-c2ccnc(C(F)(F)F)c2)no1` [Compound I-25, (S)-6-(trifluoromethyl)-N-(1-(3-(2-(trifluoromethyl)pyridin-4-yl)-1,2,4-oxadiazol-5-yl)ethyl)benzo[b]thiophene-2-carboxamide]: the IC50 is at most 1000 nM.

For the compound `C[C@H](NC(=O)[C@H]1CC[C@H](C)CC1)c1nc(-c2ccnc(C(F)(F)F)c2)no1` [Compound I-26, trans-4-methyl-N—((S)-1-(3-(2-(trifluoromethyl)pyridin-4-yl)-1,2,4-oxadiazol-5-yl)ethyl)cyclohexane-1-carboxamide], the IC50 is at most 1000 nM.

With `C[C@H](NC(=O)[C@H]1CC[C@H](C)CC1)c1nc(-c2ccnc(C3CC3)c2)no1` [Compound I-29, (S)—N-(1-(3-(2-cyclopropylpyridin-4-yl)-1,2,4-oxadiazol-5-yl)ethyl)-4-methylcyclohexane-1-carboxamide], the half-maximal inhibitory concentration (IC50) was at most 1000 nM.

For `CC1CCCC1C(=O)N[C@@H](C)c1nc(-c2ccnc(C(F)(F)F)c2)no1` (stereo partly drawn) [Compound I-30, 2-methyl-N—((S)-1-(3-(2-(trifluoromethyl)pyridin-4-yl)-1,2,4-oxadiazol-5-yl)ethyl)cyclopentane-1-carboxamide], the IC50 fell in the range of 1000 to 20000 nM.

`C[C@H](NC(=O)C1(C#N)CC1)c1nc(-c2ccnc(C(F)(F)F)c2)no1` [Compound I-32, (S)-1-cyano-N-(1-(3-(2-(trifluoromethyl)pyridin-4-yl)-1,2,4-oxadiazol-5-yl)ethyl)cyclopropane-1-carboxamide]: the IC50 is at least 20000 nM.

Compound `C[C@H](NC(=O)C1(C)CC1)c1nc(-c2ccnc(C(F)(F)F)c2)no1` [Compound I-33, (S)-1-methyl-N-(1-(3-(2-(trifluoromethyl)pyridin-4-yl)-1,2,4-oxadiazol-5-yl)ethyl)cyclopropane-1-carboxamide] displayed an IC50 of 1000 to 20000 nM.

Compound `C[C@H](NC(=O)[C@H]1CCCC(=O)N1)c1nc(-c2ccnc(C(F)(F)F)c2)no1` [Compound I-34, (R)-6-oxo-N—((S)-1-(3-(2-(trifluoromethyl)pyridin-4-yl)-1,2,4-oxadiazol-5-yl)ethyl)piperidine-2-carboxamide] registered a 50% inhibitory concentration (IC50) of at least 20000 nM.

`C[C@H](NC(=O)CN1CCCCC1)c1nc(-c2ccnc(C(F)(F)F)c2)no1` [Compound I-35, (S)-2-(piperidin-1-yl)-N-(1-(3-(2-(trifluoromethyl)pyridin-4-yl)-1,2,4-oxadiazol-5-yl)ethyl)acetamide] displayed an IC50 of at least 20000 nM.

With `C[C@H](NC(=O)[C@H]1CC[C@@H](C)CC1)c1nc(-c2ccnc(C(F)(F)F)c2)no1` [Compound I-36, cis-4-methyl-N—((S)-1-(3-(2-(trifluoromethyl)pyridin-4-yl)-1,2,4-oxadiazol-5-yl)ethyl)cyclohexane-1-carboxamide], the IC50 was at most 1000 nM.

The compound `Cc1nc(C)c(C(=O)N[C@H](C)c2nc(-c3cccc(F)c3)no2)s1` [Compound I-37, (R)—N-(1-(3-(3-fluorophenyl)-1,2,4-oxadiazol-5-yl)ethyl)-2,4-dimethylthiazole-5-carboxamide] yielded an IC50 of 1000 to 20000 nM.

The compound `C[C@H](NC(=O)c1nc(-c2ccccc2)nn1C)c1nc(-c2cccc(F)c2)no1` [Compound I-38, (S)—N-(1-(3-(3-fluorophenyl)-1,2,4-oxadiazol-5-yl)ethyl)-1-methyl-3-phenyl-1H-1,2,4-triazole-5-carboxamide] displayed a half-maximal inhibitory concentration (IC50) of at least 20000 nM.

`Cc1nc(C)c(C(=O)N[C@@H](C)c2nc(-c3cccc(F)c3)no2)s1` [Compound I-39, (S)—N-(1-(3-(3-fluorophenyl)-1,2,4-oxadiazol-5-yl)ethyl)-2,4-dimethylthiazole-5-carboxamide] had an IC50 of 1000 to 20000 nM.

In turn, `CCn1nc(C)c(C(=O)N[C@@H](C)c2nc(-c3cccc(F)c3)no2)n1` [Compound I-40, (S)-2-ethyl-N-(1-(3-(3-fluorophenyl)-1,2,4-oxadiazol-5-yl)ethyl)-5-methyl-2H-1,2,3-triazole-4-carboxamide] came in with an IC50 of 1000 to 20000 nM.

`C[C@H](NC(=O)c1ccccc1)c1nc(-c2ccnc(C3CC3)c2)no1` [Compound I-41, (S)—N-(1-(3-(2-cyclopropylpyridin-4-yl)-1,2,4-oxadiazol-5-yl)ethyl)benzamide] showed a concentration for half-maximal inhibition (IC50) of at most 1000 nM.

For `C[C@H](NC(=O)Cc1ccccc1)c1nc(-c2ccnc(C3CC3)c2)no1` [Compound I-42, (S)—N-(1-(3-(2-cyclopropylpyridin-4-yl)-1,2,4-oxadiazol-5-yl)ethyl)-2-phenylacetamide], the IC50 is at most 1000 nM.

`CC(C)Oc1cc(-c2noc([C@H](C)NC(=O)c3ccccc3)n2)ccn1` [Compound I-43, (S)—N-(1-(3-(2-isopropoxypyridin-4-yl)-1,2,4-oxadiazol-5-yl)ethyl)benzamide] returned an IC50 of at most 1000 nM.

Compound `CCOc1cc(-c2noc([C@H](C)NC(=O)c3ccccc3)n2)ccn1` [Compound I-44, (S)—N-(1-(3-(2-ethoxypyridin-4-yl)-1,2,4-oxadiazol-5-yl)ethyl)benzamide] returned an IC50 of at most 1000 nM.
